Laboratory results from patent US20200240980A1, “METHOD FOR DELAYED RECTIFIER CURRENT ENHANCEMENT, CHARACTERIZATION, AND ANALYSIS IN HUMAN INDUCED PLURIPOTENT STEM CELLS” (The Research Foundation for The State University of New York, priority 2017, published 2020).

Test system: IKr expression in human iPSCDCMs
Assay: IKr expression in human iPSCDCMs after 48 hour treatment with Endo-Porter transfected morpholino AS oligonucleotide, whole-cell patch clamp
Assay type: cell-based
Text: Our approach is based on studies showing that morpholino anti-sense (AS) oligonucleotides increased HERG expression in HEK293 cells. We examined the ability of these endoporter (Endo-Porter delivery system) transfected morpholino AS oligonucleotides to increase IKr expression in human iPSCDCMs. The morpholino AS oligonucleotide Endo-Porter, is a proprietary weak-base amphiphilic peptide that was designed to deliver non-ionic substances into the cytosol/nuclear compartment of cells by an endocytosis-mediated process. Following a 48 hour treatment with morpholino AS oligonucleotide (alpha2NS 05Z) significant increase (p<0.05) in IKr expression was observed compared to naïve/vehicle and an inverse morpholino AS oligonucleotide control (MPL ZN9DSZ INV) (Morpholino AS oligonucleotide (n=28): 0.29±0.04 pA/pF, INV control (n=7): 0.11±0.08 pA/pF). […] In naïve/vehicle treated cells we observed a near equal frequency of cells expressing current densities <0.2 pA/pF and >0.2 pA/pF. However, following morpholino AS oligonucleotide treatment cells expressing current densities >0.2 pA/pF increased to 71% p<0.05 as shown in FIG. 4.

## 5′-CAGAACACAGTAGTGAATCAAAACC-3′ (all phosphorodiamidate morpholino (PMO)) [alpha2NS 05Z, morpholino anti-sense oligonucleotide specific for a polyadenylation signal in Intron 9 of the KCNH2 gene]
hiPSCDCMs after morpholino AS oligonucleotide treatment, p<0.05, near equal frequency in naïve/vehicle cells, FIG. 4
  cells expressing IKr current densities >0.2 pA/pF: 71%
hiPSCDCMs, 48 hour treatment, mean ± spread, n=28 (morpholino AS), n=7 (INV control)
  IKr current density: 0.29±0.04 pA/pF
hiPSCDCMs, p<0.05, FIG. 4
  distribution of IKr current densities ≤0.2 pA/pF or >0.2 pA/pF versus naïve/vehicle cells: significant shift
